Key:
[1] = biological target: Serine/threonine-protein kinase B-raf (Homo sapiens, UniProt P15056, V600E); test: Inhibition of BRAF V600E mutant
[2] = Metabolic stability in human liver microsomes assessed as compound remaining at 30 uM after 60 mins by HPLC analysis; type: ADME, Microsome; details: read-out: Stability
[3] = Thermodynamic solubility of the compound in JP2 solution at pH 6.8 in presence of 20 mM bile acid; type: physicochemical; details: JP2 solution with 20 mM bile acid, read-out: Therm_solubility
[4] = species: Mus musculus; test: (§1) Ratio of AUC (0 to 24 hrs) in mouse assessed as 2-chloro-3-(1-cyanocyclopropyl)-N-[5-({2-[(cyclopropylcarbonyl) amino][1,3]thiazolo[5,4-b]pyridin-5-yl}oxy)-2-fluorophenyl] benzamide level to AUC (0 to 24hrs) in mouse assessed as tert-butyl 5-(2-(cyclopropanecarboxamido)thiazolo[5,4-b]pyridin-5-yloxy)-2-fluorophenylcarbamate level; type: ADME, organism-based; details: in vivo
[5] = system: Mus musculus; test: AUC (0 to 24 hrs) in mouse assessed as tert-butyl 5-(2-(cyclopropanecarboxamido)thiazolo[5,4-b]pyridin-5-yloxy)-2-fluorophenylcarbamate level at 32.3 mg/kg, po administered as single dose; type: ADME, organism-based, Plasma; set-up: time < 24 hr, dose 32.3 mg/kg, route oral; details: in vivo
[6] = system: Rhesus monkey; test: AUC (0 to 24 hrs) in monkey assessed as tert-butyl 5-(2-(cyclopropanecarboxamido)thiazolo[5,4-b]pyridin-5-yloxy)-2-fluorophenylcarbamate level at 32.3 mg/kg, po administered as single dose; type: ADME, organism-based, Macaca mulatta, Plasma; set-up: time < 24 hr, dose 32.3 mg/kg, route oral; details: in vivo
[7] = system: Rattus norvegicus; test: AUC (0 to 24 hrs) in nude rat assessed as tert-butyl 5-(2-(cyclopropanecarboxamido)thiazolo[5,4-b]pyridin-5-yloxy)-2-fluorophenylcarbamate level at 64.6 mg/kg, po administered as single dose; type: ADME, organism-based, Plasma; set-up: time < 24 hr, dose 64.6 mg/kg, route oral; details: in vivo
[8] = system: Rhesus monkey; test: AUC (0 to 24 hrs) in monkey assessed as tert-butyl 2-chloro-3-(1-cyanocyclopropyl)benzoyl(5-(2-(cyclopropanecarboxamido)thiazolo[5,4-b]pyridin-5-yloxy)-2-fluorophenyl)carbamate level at 32.3 mg/kg, po administered as single dose; type: ADME, organism-based, Macaca mulatta, Plasma; set-up: time < 24 hr, dose 32.3 mg/kg, route oral; details: in vivo
[9] = system: Rattus norvegicus; test: AUC (0 to 24 hrs) in nude rat assessed as tert-butyl 5-(2-(cyclopropanecarboxamido)thiazolo[5,4-b]pyridin-5-yloxy)-2-fluorophenylcarbamate level at 12.9 mg/kg, po administered as single dose; type: ADME, organism-based, Plasma; set-up: time < 24 hr, dose 12.9 mg/kg, route oral; details: in vivo
[10] = system: Canis familiaris; test: AUC (0 to 24 hrs) in dog assessed as tert-butyl 2-chloro-3-(1-cyanocyclopropyl)benzoyl(5-(2-(cyclopropanecarboxamido)thiazolo[5,4-b]pyridin-5-yloxy)-2-fluorophenyl)carbamate level at 32.3 mg/kg, po administered as single dose; type: ADME, organism-based, Canis lupus familiaris, Plasma; set-up: time < 24 hr, dose 32.3 mg/kg, route oral; details: in vivo
[11] = system: Mus musculus; test: Inhibition of VEGFR2-mediated ERK1/2 phosphorylation in human A375 cells xenografted athymic nude F344/N Jcl-rnu/rnu […] at 129 mg/kg, po administered as single dose after 4 hrs by immunoblotting relative to vehicle-treated control; values are per cent of control; details: A-375, po
[12] = system: Rattus norvegicus; test: (§2) Ratio of AUC (0 to 24 hrs) assessed as 2-chloro-3-(1-cyanocyclopropyl)-N-[5-({2-[(cyclopropylcarbonyl) amino][1,3]thiazolo[5,4-b]pyridin-5-yl}oxy)-2-fluorophenyl] benzamide level to AUC (0 to 24hrs) assessed as tert-butyl 5-(2-(cyclopropanecarboxamido)thiazolo[5,4-b]pyridin-5-yloxy)-2-fluorophenylcarbamate level in nude rat at 12.9 mg/kg, po; type: ADME, organism-based; set-up: dose 12.9 mg/kg, route oral; details: in vivo
[13] = system: Rattus norvegicus; test: AUC (0 to 24 hrs) in nude rat assessed as tert-butyl 2-chloro-3-(1-cyanocyclopropyl)benzoyl(5-(2-(cyclopropanecarboxamido)thiazolo[5,4-b]pyridin-5-yloxy)-2-fluorophenyl)carbamate level at 64.6 mg/kg, po administered as single dose; type: ADME, organism-based, Plasma; set-up: time < 24 hr, dose 64.6 mg/kg, route oral; details: in vivo
[14] = system: Canis familiaris; test: AUC (0 to 24 hrs) in dog assessed as tert-butyl 5-(2-(cyclopropanecarboxamido)thiazolo[5,4-b]pyridin-5-yloxy)-2-fluorophenylcarbamate level at 32.3 mg/kg, po administered as single dose; type: ADME, organism-based, Canis lupus familiaris, Plasma; set-up: time < 24 hr, dose 32.3 mg/kg, route oral; details: in vivo
[15] = (§3) Ratio of prodrug conversion assessed a 2-chloro-3-(1-cyanocyclopropyl)-N-[5-({2-[(cyclopropylcarbonyl) amino][1,3]thiazolo[5,4-b]pyridin-5-yl}oxy)-2-fluorophenyl] benzamide level to drug metabolism assessed as tert-butyl 5-(2-(cyclopropanecarboxamido)thiazolo[5,4-b]pyridin-5-yloxy)-2-fluorophenylcarbamate level in monkey liver microsomes; type: ADME, Macaca mulatta, Microsome; details: rhesus monkey
[16] = system: Rattus norvegicus; test: AUC (0 to 24 hrs) in nude rat assessed as 2-chloro-3-(1-cyanocyclopropyl)-N-[5-({2-[(cyclopropylcarbonyl) amino][1,3]thiazolo[5,4-b]pyridin-5-yl}oxy)-2-fluorophenyl] benzamide level at 64.6 mg/kg, po administered as single dose; type: ADME, organism-based, Plasma; set-up: time < 24 hr, dose 64.6 mg/kg, route oral; details: in vivo
[17] = system: Liver; test: as §3, with “mouse” for “monkey”; type: ADME, Microsome
[18] = system: Rhesus monkey; test: AUC (0 to 24 hrs) in monkey assessed as 2-chloro-3-(1-cyanocyclopropyl)-N-[5-({2-[(cyclopropylcarbonyl) amino][1,3]thiazolo[5,4-b]pyridin-5-yl}oxy)-2-fluorophenyl] benzamide level at 32.3 mg/kg, po administered as single dose; type: ADME, organism-based, Macaca mulatta, Plasma; set-up: time < 24 hr, dose 32.3 mg/kg, route oral; details: in vivo
[19] = system: Canis familiaris; test: AUC (0 to 24 hrs) in dog assessed as 2-chloro-3-(1-cyanocyclopropyl)-N-[5-({2-[(cyclopropylcarbonyl) amino][1,3]thiazolo[5,4-b]pyridin-5-yl}oxy)-2-fluorophenyl] benzamide level at 32.3 mg/kg, po administered as single dose; type: ADME, organism-based, Canis lupus familiaris, Plasma; set-up: time < 24 hr, dose 32.3 mg/kg, route oral; details: in vivo
[20] = system: Mus musculus; test: AUC (0 to 24 hrs) in mouse assessed as 2-chloro-3-(1-cyanocyclopropyl)-N-[5-({2-[(cyclopropylcarbonyl) amino][1,3]thiazolo[5,4-b]pyridin-5-yl}oxy)-2-fluorophenyl] benzamide level at 32.3 mg/kg, po administered as single dose; type: ADME, organism-based, Plasma; set-up: time < 24 hr, dose 32.3 mg/kg, route oral; details: in vivo
[21] = system: Rattus norvegicus; test: AUC (0 to 24 hrs) in nude rat assessed as tert-butyl 2-chloro-3-(1-cyanocyclopropyl)benzoyl(5-(2-(cyclopropanecarboxamido)thiazolo[5,4-b]pyridin-5-yloxy)-2-fluorophenyl)carbamate level at 12.9 mg/kg, po administered as single dose; type: ADME, organism-based, Plasma; set-up: time < 24 hr, dose 12.9 mg/kg, route oral; details: in vivo
[22] = system: Liver; test: Prodrug conversion in dog liver microsomes assessed as 2-chloro-3-(1-cyanocyclopropyl)-N-[5-({2-[(cyclopropylcarbonyl) amino][1,3]thiazolo[5,4-b]pyridin-5-yl}oxy)-2-fluorophenyl] benzamide level at 10 umol/L after 2 hrs; type: ADME, Canis lupus familiaris, Microsome; details: 10 µM
[23] = system: Liver microsomes; test: as §3, with “rat” for “monkey”; type: ADME, Microsome
[24] = system: Liver microsomes; test: as §3, with “human” for “monkey”; type: ADME, Microsome
[25] = system: Mus musculus; test: Inhibition of VEGFR2-mediated ERK1/2 phosphorylation in human A375 cells xenografted athymic nude F344/N Jcl-rnu/rnu […] at 32.3 mg/kg, po administered as single dose after 4 hrs by immunoblotting relative to vehicle-treated control; values are per cent of control; details: A-375, po
[26] = system: Liver; test: as §3, with “dog” for “monkey”; type: ADME, Canis lupus familiaris, Microsome
[27] = system: Rattus norvegicus; test: as §2, with “64.6” for “12.9”; type: ADME, organism-based; set-up: dose 64.6 mg/kg, route oral; details: in vivo
[28] = system: Mus musculus; test: Inhibition of VEGFR2-mediated ERK1/2 phosphorylation in human A375 cells xenografted athymic nude F344/N Jcl-rnu/rnu […] at 12.9 mg/kg, po administered as single dose after 4 hrs by immunoblotting relative to vehicle-treated control; values are per cent of control; details: A-375, po
[29] = system: Rhesus monkey; test: as §1, with “monkey” for “mouse”; type: ADME, organism-based, Macaca mulatta; details: in vivo
[30] = system: Rattus norvegicus; test: AUC (0 to 24 hrs) in nude rat assessed as 2-chloro-3-(1-cyanocyclopropyl)-N-[5-({2-[(cyclopropylcarbonyl) amino][1,3]thiazolo[5,4-b]pyridin-5-yl}oxy)-2-fluorophenyl] benzamide level at 12.9 mg/kg, po administered as single dose; type: ADME, organism-based, Plasma; set-up: time < 24 hr, dose 12.9 mg/kg, route oral; details: in vivo
[31] = system: A-375; test: Antitumor activity against human A375 cells xenografted in athymic nude F344/N jcl-rnu/rnu […] assessed as tumor regression at 129 mg/kg, po administered BID for 2 weeks measured on day 14 relative to control; type: functional
[32] = species: Canis familiaris; test: as §1, with “dog” for “mouse”; type: ADME, organism-based, Canis lupus familiaris; details: in vivo
[33] = system: Mus musculus; test: Inhibition of […] ERK1/2 phosphorylation in human A375 cells xenografted po dosed athymic nude F344/N […] administered as single dose after 4 hrs by immunoblotting; type: functional, organism-based; details: A-375
[34] = system: A-375; test: Antitumor activity against human A375 cells xenografted in athymic nude F344/N jcl-rnu/rnu […] assessed as tumor regression at >32.3 mg/kg, po administered BID for 2 weeks measured on day 14 relative to control; type: functional, organism-based

Chain of Serine/threonine-protein kinase B-raf (P15056 2-766 V600E limits assumed): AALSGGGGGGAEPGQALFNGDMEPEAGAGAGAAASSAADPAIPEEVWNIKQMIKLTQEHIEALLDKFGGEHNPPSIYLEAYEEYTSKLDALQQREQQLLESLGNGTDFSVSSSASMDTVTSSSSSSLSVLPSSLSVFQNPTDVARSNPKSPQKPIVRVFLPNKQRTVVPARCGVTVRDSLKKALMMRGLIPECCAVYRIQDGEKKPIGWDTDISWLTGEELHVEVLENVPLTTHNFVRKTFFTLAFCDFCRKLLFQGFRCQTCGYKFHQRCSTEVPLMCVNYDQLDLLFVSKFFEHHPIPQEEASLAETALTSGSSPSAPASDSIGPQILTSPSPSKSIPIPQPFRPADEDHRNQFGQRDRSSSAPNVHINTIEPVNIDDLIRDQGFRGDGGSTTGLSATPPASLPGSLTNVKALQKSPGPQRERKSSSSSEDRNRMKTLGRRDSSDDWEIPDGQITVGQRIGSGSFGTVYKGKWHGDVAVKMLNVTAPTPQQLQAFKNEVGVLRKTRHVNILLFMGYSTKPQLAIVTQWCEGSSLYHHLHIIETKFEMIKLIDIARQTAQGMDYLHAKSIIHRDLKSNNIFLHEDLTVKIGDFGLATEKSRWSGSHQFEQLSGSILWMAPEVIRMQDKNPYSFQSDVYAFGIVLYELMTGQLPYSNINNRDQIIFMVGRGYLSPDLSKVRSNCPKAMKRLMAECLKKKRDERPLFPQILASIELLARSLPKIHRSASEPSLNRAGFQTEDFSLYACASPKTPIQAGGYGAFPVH

CC(C)(C)OC(=O)Nc1cc(Oc2ccc3nc(NC(=O)C4CC4)sc3n2)ccc1F
IC50 [1]: 2000 nM

N#CC1(c2cccc(C(=O)Nc3cc(Oc4ccc5nc(NC(=O)C6CC6)sc5n4)ccc3F)c2Cl)CC1
remaining at 1 h, 30 µM [2]: 110%
solubility thermodynamic [3]: 3.6 µg/mL

CC(=O)Nc1nc2ccc(Oc3ccc(F)c(NC(=O)c4cccc(C5(C#N)CC5)c4Cl)c3)nc2s1
remaining at 1 h, 30 µM [2]: 78.5%

N#CC1(c2cccc(C(=O)N(C(=O)C3CC3)c3cc(Oc4ccc5nc(NC(=O)C6CC6)sc5n4)ccc3F)c2Cl)CC1
solubility thermodynamic [3]: 3.2 µg/mL

CC(=O)O.CC(C)(C)OC(=O)N(C(=O)c1cccc(C2(C#N)CC2)c1Cl)c1cc(Oc2ccc3nc(NC(=O)C4CC4)sc3n2)ccc1F
Ratio AUC [4]: 9.8
AUC [5]: 500 ng·h/mL
AUC [6]: 30 ng·h/mL
AUC [7]: 1800 ng·h/mL
AUC [8]: 530 ng·h/mL
AUC [9]: 570 ng·h/mL
AUC [10]: 530 ng·h/mL
level, % of control at 129 mg/kg [11]: 20.1%
Ratio AUC [12]: 2.4
AUC [13]: 80 ng·h/mL
AUC [14]: 630 ng·h/mL
Ratio [15]: 3
AUC [16]: 4280 ng·h/mL
Ratio [17]: 19
AUC [18]: 9900 ng·h/mL
AUC [19]: 25330 ng·h/mL
AUC [20]: 4900 ng·h/mL
AUC [21]: 20 ng·h/mL
Drug metabolism [22]: 2.3%
Ratio [23]: 0.76
Ratio [24]: 152
level, % of control at 32.3 mg/kg [25]: 34.1%
Ratio [26]: 3.3
solubility thermodynamic [3]: 19 µg/mL
Ratio AUC [27]: 2.4
level, % of control at 12.9 mg/kg [28]: 52.7%
Ratio AUC [29]: 330
AUC [30]: 1390 ng·h/mL
T/C [31]: 6.4%
Ratio AUC [32]: 40

CC(C)(C)OC(=O)N(C(=O)c1cccc(C2(C#N)CC2)c1Cl)c1cc(Oc2ccc3nc(NC(=O)C4CC4)sc3n2)ccc1F.O
solubility thermodynamic [3]: 49 µg/mL

CC(C)(C)OC(=O)N(C(=O)c1cccc(C2(C#N)CC2)c1Cl)c1cc(Oc2ccc3nc(NC(=O)C4CC4)sc3n2)ccc1F.CCO
solubility thermodynamic [3]: 4.2 µg/mL

CC(C)(C)OC(=O)N(C(=O)c1cccc(C2(C#N)CC2)c1Cl)c1cc(Oc2ccc3nc(NC(=O)C4CC4)sc3n2)ccc1F
inhibition [33]: Dose-dependent effect
Activity [34]: Dose-dependent effect

CCOC(=O)N(C(=O)c1cccc(C2(C#N)CC2)c1Cl)c1cc(Oc2ccc3nc(NC(=O)C4CC4)sc3n2)ccc1F
solubility thermodynamic [3]: 0.79 µg/mL
